Source: patent US9540352B2, “Substituted 1,7-naphthyridines as dopamine D1 ligands” (PFIZER INC., priority 2014, dated 2017)

Each compound was assayed against Human D1 Receptor (Homo sapiens (Human), UniProt P21728) (assay: Human D1 receptor binding assay ([3H]-SCH23390 competition)). Conditions: over-expressing LTK human cell lines; 0.5 nM [3H]-SCH23390; 30 min at 37 °C; footnote a: geometric mean of ≥5 determinations; footnote b: single determination; read-out: Human D1 Receptor Binding, Ki (nM); Geometric mean of 2-4 determinations (unless otherwise indicated).
Procedure: The affinity of the compounds described herein was determined by competition binding assays similar to those described in Ryman-Rasmussen et al., “Differential activation of adenylate cyclase and receptor internalization by novel dopamine D1 receptor agonists”, Molecular Pharmacology 68(4):1039-1048 (2005).
D1 binding assays were performed using over-expressing LTK human cell lines. […] These ligand and tissue concentrations were used in time course studies to determine linearity and equilibrium conditions for binding. Binding was at equilibrium with the specified amount of tissue in 30 minutes at 37° C. […] The pellet was resuspended in assay buffer [50 mM Tris (pH 7.4@ RT) containing 4 mM MgSO4 and 0.5 mM EDTA]. […] Non-specific binding was determined by radioligand binding in the presence of a saturating concentration of (+)-Butaclamol (10 μM), a D1 antagonist. After a 30 minute incubation period at 37° C., assay samples were rapidly filtered through Unifilter-96 GF/B PEI-coated filter plates and rinsed with 50 mM Tris buffer (pH 7.4 at 4° C.). […] The IC50 value (concentration at which 50% inhibition of specific binding occurs) was calculated by linear regression of the concentration-response data in Microsoft Excel. Ki values were calculated according to the Cheng-Prusoff equation: […]

Sequence of Human D1 Receptor (P21728 whole entry): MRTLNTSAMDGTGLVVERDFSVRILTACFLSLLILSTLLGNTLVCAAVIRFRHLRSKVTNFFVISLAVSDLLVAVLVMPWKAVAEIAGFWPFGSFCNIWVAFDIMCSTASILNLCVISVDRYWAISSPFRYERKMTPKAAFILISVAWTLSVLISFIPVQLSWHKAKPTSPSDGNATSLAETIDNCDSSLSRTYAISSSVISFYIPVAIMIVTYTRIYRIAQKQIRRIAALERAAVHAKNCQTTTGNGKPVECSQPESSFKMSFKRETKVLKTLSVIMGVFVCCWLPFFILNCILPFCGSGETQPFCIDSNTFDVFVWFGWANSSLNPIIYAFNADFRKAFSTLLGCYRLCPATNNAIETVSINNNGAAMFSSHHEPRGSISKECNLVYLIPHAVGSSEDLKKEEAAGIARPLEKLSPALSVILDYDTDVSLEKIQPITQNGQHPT

| Ki [nM] | SMILES |
| --- | --- |
| 119 | Cc1c(-c2ccc(Oc3nccc4cccnc34)cc2)n(C)c(=O)[nH]c1=O [Example 7, 1,5-dimethyl-6-[4-(1,7-naphthyridin-8-yloxy)phenyl]pyrimidine-2,4(1H,3H)-dione] |
| 1.9 | Cc1cc(Oc2nccc3ccccc23)ccc1-c1c(C)c(=O)[nH]c(=O)n1C [Example 5, 6-[4-(Isoquinolin-1-yloxy)-2-methylphenyl]-1,5-dimethylpyrimidine-2,4(1H,3H)-dione] |
| 205 | Cc1n[nH]c(=O)c(C)c1-c1ccc(Oc2nccc3cccnc23)cc1 [Example 4, 4,6-Dimethyl-5-[4-(1,7-naphthyridin-8-yloxy)phenyl]pyridazin-3(2H)-one] |
| 124 | Cc1cc(Oc2nccc3ncccc23)ccc1-c1c(C)n[nH]c(=O)c1C [Example 10, 4,6-dimethyl-5-[2-methyl-4-(1,6-naphthyridin-5-yloxy)phenyl]pyridazin-3(2H)-one] |
| 261 | Cc1cc(Oc2nccc3cccc(C#N)c23)ccc1-c1c(C)n[nH]c(=O)c1C [Example 14, 1-[4-(3,5-dimethyl-6-oxo-1,6-dihydropyridazin-4-yl)-3-methylphenoxy]isoquinoline-8-carbonitrile] |
| 105 | Cc1cc(Oc2nccc3cccnc23)ccc1-c1c(C)ncnc1C [Example 6, 8-[4-(4,6-dimethylpyrimidin-5-yl)-3-methylphenoxy]-1,7-naphthyridine] |
| 28.5 | Cc1cc(Oc2nccc3cccnc23)ccc1-c1c(C)c(=O)[nH]c(=O)n1C [Example 1, 1,5-Dimethyl-6-[2-methyl-4-(1,7-naphthyridin-8-yloxy)phenyl]pyrimidine-2,4(1H,3H)-dione] |
| 141 | Cc1cc(Oc2nccc3ccncc23)ccc1-c1c(C)n[nH]c(=O)c1C [Example 8, 4,6-dimethyl-5-[2-methyl-4-(2,7-naphthyridin-1-yloxy)phenyl]pyridazin-3(2H)-one] |
| 115 | Cc1cc(Oc2nccc3cccnc23)ccc1-c1c(C)n[nH]c(=O)c1C (single isomer, unassigned) [Example 2, (+)-4,6-Dimethyl-5-[2-methyl-4-(1,7-naphthyridin-8-yloxy)phenyl]pyridazin-3(2H)-one] |
| 334 | Cc1cc(Oc2nccc3ccc(C#N)cc23)ccc1-c1c(C)n[nH]c(=O)c1C [Example 13, 1-[4-(3,5-dimethyl-6-oxo-1,6-dihydropyridazin-4-yl)-3-methylphenoxy]isoquinoline-7-carbonitrile] |
| 7.8 | Cc1cc(Oc2nccc3ccccc23)ccc1-c1c(C)n[nH]c(=O)c1C [Example 11, 5-[4-(isoquinolin-1-yloxy)-2-methylphenyl]-4,6-dimethylpyridazin-3(2H)-one] |
| 306 | Cc1cc(Oc2nccc3nccnc23)ccc1-c1c(C)n[nH]c(=O)c1C [Example 9, 4,6-dimethyl-5-[2-methyl-4-(pyrido[3,4-b]pyrazin-5-yloxy)phenyl]pyridazin-3(2H)-one] |
| 102 | Cc1cc(Oc2nccc3cccnc23)ccc1-c1c(C)n[nH]c(=O)c1C (single isomer, unassigned) [Example 3, (−)-4,6-Dimethyl-5-[2-methyl-4-(1,7-naphthyridin-8-yloxy)phenyl]pyridazin-3(2H)-one] |
| 186 | COc1ccc2ccnc(Oc3ccc(-c4c(C)n[nH]c(=O)c4C)c(C)c3)c2c1 [Example 12, 5-{4-[(7-methoxyisoquinolin-1-yl)oxy]-2-methylphenyl}-4,6-dimethylpyridazin-3(2H)-one] |
